Experimental data reported in patent publication US8551996B2, “Compounds, compositions, methods of synthesis, and methods of treatment” (Emory University, priority 2009, dated 2013).

Molecular target: T1, CRF-1 receptor (Homo sapiens, UniProt P34998)
T1 construct: expressed in transfected cells; host or cells: HEK293T/17
T1 sequence (P34998 24-415): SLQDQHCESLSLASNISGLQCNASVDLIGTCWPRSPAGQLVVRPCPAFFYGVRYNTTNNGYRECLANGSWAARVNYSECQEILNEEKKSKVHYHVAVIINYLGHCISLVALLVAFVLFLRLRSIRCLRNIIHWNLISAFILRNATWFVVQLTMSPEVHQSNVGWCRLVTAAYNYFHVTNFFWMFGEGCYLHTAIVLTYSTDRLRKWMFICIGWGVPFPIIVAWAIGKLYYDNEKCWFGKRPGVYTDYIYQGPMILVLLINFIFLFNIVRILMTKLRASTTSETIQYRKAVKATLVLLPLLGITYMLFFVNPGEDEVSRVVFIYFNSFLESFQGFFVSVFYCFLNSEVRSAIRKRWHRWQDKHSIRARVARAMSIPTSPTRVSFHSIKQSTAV
Test: CRF-1 receptor competitive binding vs. [125I]sauvagine
Conditions: for Ki: transfected HEK293T/17 cells expressing the CRF-1 receptor, radioligand [125I]sauvagine, read-out: CRF-1 Receptor Binding Affinities (vs. [125I] Sauvagine) Ki; for affinity for the CRF-1 receptor (in words): vs. [125I]sauvagine, only slightly reduced from that found for R121919
Text: Pyrido[2,3-b]pyrazin-2-ones of type VI (Table 1) were synthesized according to the procedure reported by Dzierba, et al., (J. Med. Chem. 2004, 47, 5783-5790) as shown in Scheme 21.

Ki | affinity for the CRF-1 receptor (in words) | Structure (SMILES)
6.2 ± 1.4 nM | high affinity | CCCCN(CC)c1cc(C)nc2c1NC(=O)CN2c1ccc(C)cc1Br [Compound 185, 4-(2-Bromo-4-methylphenyl)-8-(butylethylamino)-6-methyl-3,4-dihydra-1H-pyrido[2,3-b]pyrazin-2-one]
5.7 ± 0.3 nM | high affinity | CCCCN(CC)c1cc(C)nc2c1NC(=O)CN2c1ccc(Br)cc1C [Compound 188, 8-(Butylethylamino)-4-(2-methyl-4-bromophenyl)-6-methyl-3,4-dihydro-1H-pyrido[2,3-b]pyrazin-2-one]
9.1 nM | high affinity | CCCCN(CC)c1cc(C)nc2c1NC(=O)CN2c1ccc(C)cc1C [Compound 191, 8-(Butylethylamino)-4-(2,4-dimethylphenyl)-6-methyl-3,4-dihydro-1H-pyrido[2,3-b]pyrazin-2-one]
